Test in all cases: relative viability (nuclei count vs DMSO), 5 days (fraction); higher = more cells survive
Compound in assay [1]: COC1=CC=C(C=C1)CN2C=CC3=C2C=C(C=C3)C(=O)NO + Nc1nc2[nH]cc(CCc3ccc(C(=O)N[C@@H](CCC(=O)O)C(=O)O)cc3)c2c(=O)[nH]1 [Pemetrexed] (partner 0.2 µM)
The method, boiled down: (§1)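 Cells from lung cancer lines were seeded into 1536-well plates and, one day later, dosed by pin tool. Treatments were either a single drug or a fixed dose of an anchor drug with five library-drug doses (not always all listed) in √10 steps. After 5 days, nuclei were stained in a one-step fixation (final 0.05% Triton X-100, 1% formaldehyde, 1 ug/ml Hoechst) and counted on 4× images, and relative viability is the treated-to-vehicle nuclei ratio, as the median of duplicate plates.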

Compound in the assay “Veliparib + OSI-027”: C[C@]1(c2nc3c(C(N)=O)cccc3[nH]2)CCCN1 [Veliparib] + COc1cccc2cc(-c3nc([C@H]4CC[C@H](C(=O)O)CC4)n4ncnc(N)c34)[nH]c12 [OSI-027] (partner 0.5 µM)
The method, boiled down: as §1

Compound in assay [2]: COC1=CC=C(C=C1)CN2C=CC3=C2C=C(C=C3)C(=O)NO + C[C@@H](Oc1cc(-c2cnn(C3CCNCC3)c2)cnc1N)c1c(Cl)ccc(F)c1Cl [Crizotinib] (partner 1 µM)
The method, boiled down: as §1

Compound in assay [3]: COC1=CC=C(C=C1)CN2C=CC3=C2C=C(C=C3)C(=O)NO + CCNC(=O)c1noc(-c2cc(C(C)C)c(O)cc2O)c1-c1ccc(CN2CCOCC2)cc1 [Luminespib] (partner 0.01 µM)
The method, boiled down:
as §1

Results on 5 cell lines are retold here after the supplement of paper PMC10307832.

Consider RERF-LC-KJ, for which the relative viability in assay [1] (first compound 0.08 µM) stood at 0.442; in assay [1] (first compound 0.253 µM), 0.502; in assay [1] (first compound 0.8 µM) it was 0.482; in assay [1] (first compound 2.53 µM), 0.501; in assay [1] (first compound 8 µM), 0.521; with Veliparib + OSI-027 (first compound 0.02 µM), 0.39. Further, the relative viability with Veliparib + OSI-027 (first compound 0.06325 µM) was determined as 0.455; with Veliparib + OSI-027 (first compound 0.2 µM), 0.634; with Veliparib + OSI-027 (first compound 0.6325 µM), 0.538; with Veliparib + OSI-027 (first compound 2 µM) it was 0.57; in assay [2] (first compound 0.08 µM) it was 0.618; in assay [2] (first compound 0.253 µM), 0.756. For the same cell line, the relative viability came out at 0.864 in assay [2] (first compound 0.8 µM); 0.816 in assay [2] (first compound 2.53 µM); 0.814 in assay [2] (first compound 8 µM); 1.24 in assay [3] (first compound 0.08 µM); 1.35 in assay [3] (first compound 0.253 µM); 1.17 in assay [3] (first compound 0.8 µM). Further, the results for the relative viability in assay [3] (first compound 2.53 µM) and in assay [3] (first compound 8 µM) were 1.26 and 1.08, respectively.
For SK-LU-1, the relative viability came to 0.942 in assay [1] (first compound 0.08 µM); 0.973 in assay [1] (first compound 0.253 µM); 1 in assay [1] (first compound 0.8 µM); 1.01 in assay [1] (first compound 2.53 µM); 0.953 in assay [1] (first compound 8 µM); 0.388 in the assay with Veliparib + OSI-027 (first compound 0.02 µM). In addition, the relative viability with Veliparib + OSI-027 (first compound 0.06325 µM) worked out at 0.316; in the assay with Veliparib + OSI-027 (first compound 0.2 µM), 0.381; with Veliparib + OSI-027 (first compound 0.6325 µM), 0.307; with Veliparib + OSI-027 (first compound 2 µM), 0.343; in assay [2] (first compound 0.08 µM), 0.929; in assay [2] (first compound 0.253 µM), 1.17. The relative viability in assay [2] (first compound 0.8 µM) turned out to be 0.992; in assay [2] (first compound 2.53 µM), 1.01; in assay [2] (first compound 8 µM) it was 0.749; in assay [3] (first compound 0.08 µM) it was 0.184; in assay [3] (first compound 0.253 µM), 0.197; in assay [3] (first compound 0.8 µM), 0.183. The figures for the relative viability in assay [3] (first compound 2.53 µM) and in assay [3] (first compound 8 µM) were 0.191 and 0.185, respectively.
With SK-MES-1, the relative viability amounted to 0.968 in assay [1] (first compound 0.08 µM); 0.985 in assay [1] (first compound 0.253 µM); 0.9 in assay [1] (first compound 0.8 µM); 0.896 in assay [1] (first compound 2.53 µM); 0.849 in assay [1] (first compound 8 µM); 0.618 with Veliparib + OSI-027 (first compound 0.02 µM). Also, the relative viability was determined as 0.527 with Veliparib + OSI-027 (first compound 0.06325 µM); 0.686 in the assay with Veliparib + OSI-027 (first compound 0.2 µM); 0.588 with Veliparib + OSI-027 (first compound 0.6325 µM); 0.638 with Veliparib + OSI-027 (first compound 2 µM); 1 in assay [2] (first compound 0.08 µM); 0.983 in assay [2] (first compound 0.253 µM). Further, the relative viability was found to be 0.984 in assay [2] (first compound 0.8 µM); 1 in assay [2] (first compound 2.53 µM); 0.885 in assay [2] (first compound 8 µM); 0.795 in assay [3] (first compound 0.08 µM); 0.833 in assay [3] (first compound 0.253 µM); 0.609 in assay [3] (first compound 0.8 µM). For the same cell line, the figures for the relative viability in assay [3] (first compound 2.53 µM) and in assay [3] (first compound 8 µM) were 0.795 and 0.504, respectively.
As for SW 1573, the relative viability in assay [1] (first compound 0.253 µM) was found to be 0.906; in assay [1] (first compound 0.8 µM), 0.82; in assay [1] (first compound 2.53 µM), 0.853; in assay [1] (first compound 8 µM), 0.803; in the assay with Veliparib + OSI-027 (first compound 0.06325 µM), 0.558; with Veliparib + OSI-027 (first compound 0.2 µM), 0.597. The relative viability with Veliparib + OSI-027 (first compound 0.6325 µM) was found to be 0.521; in the assay with Veliparib + OSI-027 (first compound 2 µM) it was 0.675; in assay [2] (first compound 0.253 µM) it was 0.908; in assay [2] (first compound 0.8 µM), 0.803; in assay [2] (first compound 2.53 µM), 0.755; in assay [2] (first compound 8 µM), 0.587. In addition, the relative viability came out at 0.522 in assay [3] (first compound 0.253 µM), 0.279 in assay [3] (first compound 0.8 µM), 0.298 in assay [3] (first compound 2.53 µM) and 0.491 in assay [3] (first compound 8 µM).
As for UMC-11, the relative viability in assay [1] (first compound 0.08 µM) amounted to 0.568; in assay [1] (first compound 0.253 µM) it was 0.854; in assay [1] (first compound 0.8 µM) it was 0.823; in assay [1] (first compound 2.53 µM), 0.793; in assay [1] (first compound 8 µM), 0.784; with Veliparib + OSI-027 (first compound 0.02 µM), 0.508. Moreover, the relative viability with Veliparib + OSI-027 (first compound 0.06325 µM) amounted to 0.471; in the assay with Veliparib + OSI-027 (first compound 0.2 µM) it was 0.472; with Veliparib + OSI-027 (first compound 0.6325 µM), 0.469; with Veliparib + OSI-027 (first compound 2 µM), 0.415; in assay [2] (first compound 0.08 µM), 0.269; in assay [2] (first compound 0.253 µM) it was 0.704. Further, the relative viability in assay [2] (first compound 0.8 µM) was 0.564; in assay [2] (first compound 2.53 µM) it was 0.554; in assay [2] (first compound 8 µM), 0.56; in assay [3] (first compound 0.253 µM), 1.13; in assay [3] (first compound 0.8 µM), 0.98; in assay [3] (first compound 2.53 µM) it was 0.904. Besides, the relative viability in assay [3] (first compound 8 µM) was found to be 1.01.
